Common to all, as to assay type: cell-based
In assay [1] the target is T1, Serine/threonine-protein kinase mTOR (Homo sapiens, UniProt P42345). The experiment in a line: Activation of mTOR in human HepG2 cells assessed as increase in 4EBP1 phosphorylation at 1.5 uM measured after 24 hrs by western blot analysis. Conditions: filed as activator. (In general: A western blot detects proteins with antibodies after separation by electrophoresis.)

For assay [2], the target named is T1, Serine/threonine-protein kinase mTOR. The assay can be described thus: Inhibition of mTOR in human HepG2 cells assessed as reduction in phosphorylation of 4EBP1 measured after 24 hrs by western blot analysis. Conditions: dose 1.5-6 µM.
Assay [3] shares this target. The assay can be described thus: Inhibition of mTOR in human HepG2 cells assessed as reduction in phosphorylation of p70S6K measured after 24 hrs by western blot analysis. Conditions: dose 1.5-6 µM.

Each structure is given as a SMILES string. Activity calls are given as the source filed them. No cut-off for these calls is given here.

Consider `Nc1ncnc2c1c(-c1cnc3[nH]ccc3c1)nn2CCCCCCCCC(=O)NO`, for which, in assay [1], the result was Active.
Regarding `Nc1nc2cc(-c3nn(CCCCCCC(=O)NO)c4ncnc(N)c34)ccc2o1`, the inhibition result in assay [2] and in assay [3] was “Dose-Dependent Effect” throughout.
